Results reported in the NIST ThermoML archive (doi:10.1021/je200195q).
Numbers after ± are expanded uncertainties.

Assay: activity coefficient (dimensionless); of the first substance listed, at infinite dilution; xn = mol fraction of the nth substance listed
Conditions: 101 kPa, Liquid, Chromatography, x1 = 0

For `C=O` [methanal] + CCn1cc[n+](C)c1.CS(=O)(=O)[O-], the activity coefficient (312.55 K) was 0.615 ± 0.043, the activity coefficient (322.45 K) was 0.656 ± 0.045 and the activity coefficient (332.45 K) was 0.691 ± 0.046.

`CO` [methanol] + CCCCCCCCCCn1cc[n+](CCCCCCCCCC)c1C.O=S(=O)([N-]S(=O)(=O)C(F)(F)F)C(F)(F)F gave an activity coefficient (323.1 K) of 0.963 ± 0.061, an activity coefficient (333.15 K) of 0.857 ± 0.055 and an activity coefficient (343.15 K) of 0.755 ± 0.05.

Compound `CO` [methanol] + CCCCCC[n+]1ccn(C)c1.FC(F)(F)C(F)(F)[P-](F)(F)(F)(C(F)(F)C(F)(F)F)C(F)(F)C(F)(F)F has an activity coefficient (312.8 K) of 1.57 ± 0.1, an activity coefficient (332.85 K) of 2.01 ± 0.14 and an activity coefficient (354.65 K) of 1.58 ± 0.1.

With `CO` [methanol] + CCCCn1cc[n+](C)c1.O=S(=O)([N-]S(=O)(=O)C(F)(F)C(F)(F)F)C(F)(F)C(F)(F)F the activity coefficient (322.55 K) was 1.23 ± 0.079, the activity coefficient (342.75 K) was 0.997 ± 0.062 and the activity coefficient (362.65 K) was 0.942 ± 0.059.

`CO` [methanol] + CCn1cc[n+](C)c1.CS(=O)(=O)[O-] showed an activity coefficient (312.55 K) of 0.249 ± 0.03, an activity coefficient (322.45 K) of 0.254 ± 0.03 and an activity coefficient (332.45 K) of 0.264 ± 0.03.

For `CC1CCCCC1` [methylcyclohexane] + CCCCCCCCCCn1cc[n+](CCCCCCCCCC)c1C.O=S(=O)([N-]S(=O)(=O)C(F)(F)F)C(F)(F)F, the activity coefficient (323.1 K) was 1.52 ± 0.1, the activity coefficient (333.15 K) was 1.48 ± 0.098 and the activity coefficient (343.15 K) was 1.45 ± 0.095.

Work on `CC1CCCCC1` [methylcyclohexane] + CCCCCC[n+]1ccn(C)c1.FC(F)(F)C(F)(F)[P-](F)(F)(F)(C(F)(F)C(F)(F)F)C(F)(F)C(F)(F)F yielded an activity coefficient (312.8 K) of 5.89 ± 0.4, an activity coefficient (332.85 K) of 5.23 ± 0.36 and an activity coefficient (354.65 K) of 4.49 ± 0.31.

With `CC1CCCCC1` [methylcyclohexane] + CCCCn1cc[n+](C)c1.O=S(=O)([N-]S(=O)(=O)C(F)(F)C(F)(F)F)C(F)(F)C(F)(F)F the activity coefficient (322.55 K) was 9.09 ± 0.62, the activity coefficient (342.75 K) was 7.96 ± 0.54 and the activity coefficient (362.65 K) was 7.07 ± 0.48.

With `CC1CCCC1` [methylcyclopentane] + CCCCCCCCCCn1cc[n+](CCCCCCCCCC)c1C.O=S(=O)([N-]S(=O)(=O)C(F)(F)F)C(F)(F)F the activity coefficient (323.1 K) was 1.35 ± 0.088, the activity coefficient (333.15 K) was 1.33 ± 0.086 and the activity coefficient (343.15 K) was 1.3 ± 0.084.

Work on `CC1CCCC1` [methylcyclopentane] + CCCCCC[n+]1ccn(C)c1.FC(F)(F)C(F)(F)[P-](F)(F)(F)(C(F)(F)C(F)(F)F)C(F)(F)C(F)(F)F yielded an activity coefficient (312.8 K) of 4.58 ± 0.31, an activity coefficient (332.85 K) of 4.09 ± 0.28 and an activity coefficient (354.65 K) of 3.52 ± 0.24.

With `CC1CCCC1` [methylcyclopentane] + CCCCn1cc[n+](C)c1.O=S(=O)([N-]S(=O)(=O)C(F)(F)C(F)(F)F)C(F)(F)C(F)(F)F the activity coefficient (322.55 K) was 6.85 ± 0.47, the activity coefficient (342.75 K) was 6.05 ± 0.41 and the activity coefficient (362.65 K) was 5.79 ± 0.4.

Compound `C[N+](=O)[O-]` [nitromethane] + CCCCCCCCCCn1cc[n+](CCCCCCCCCC)c1C.O=S(=O)([N-]S(=O)(=O)C(F)(F)F)C(F)(F)F has an activity coefficient (323.1 K) of 0.596 ± 0.042, an activity coefficient (333.15 K) of 0.559 ± 0.04 and an activity coefficient (343.15 K) of 0.536 ± 0.039.

Work on `C[N+](=O)[O-]` [nitromethane] + CCCCCC[n+]1ccn(C)c1.FC(F)(F)C(F)(F)[P-](F)(F)(F)(C(F)(F)C(F)(F)F)C(F)(F)C(F)(F)F yielded an activity coefficient (312.8 K) of 0.452 ± 0.036, an activity coefficient (332.85 K) of 0.438 ± 0.035 and an activity coefficient (354.65 K) of 0.41 ± 0.034.

For `C[N+](=O)[O-]` [nitromethane] + CCCCn1cc[n+](C)c1.O=S(=O)([N-]S(=O)(=O)C(F)(F)C(F)(F)F)C(F)(F)C(F)(F)F, the activity coefficient (322.55 K) was 0.625 ± 0.043, the activity coefficient (342.75 K) was 0.682 ± 0.046 and the activity coefficient (362.65 K) was 0.699 ± 0.047.

In the case of `C[N+](=O)[O-]` [nitromethane] + CCn1cc[n+](C)c1.CS(=O)(=O)[O-], the activity coefficient (312.55 K) is reported as 2.06 ± 0.14, the activity coefficient (322.45 K) is reported as 1.26 ± 0.081 and the activity coefficient (332.45 K) is reported as 0.801 ± 0.052.

For `CCCCCCCCC` [nonane] + CCCCCCCCCCn1cc[n+](CCCCCCCCCC)c1C.O=S(=O)([N-]S(=O)(=O)C(F)(F)F)C(F)(F)F, the activity coefficient (323.1 K) was 3.31 ± 0.23, the activity coefficient (333.15 K) was 3.17 ± 0.22 and the activity coefficient (343.15 K) was 3.45 ± 0.23.

For `CCCCCCCCC` [nonane] + CCCCCC[n+]1ccn(C)c1.FC(F)(F)C(F)(F)[P-](F)(F)(F)(C(F)(F)C(F)(F)F)C(F)(F)C(F)(F)F, the activity coefficient (312.8 K) was 17.7 ± 1.2, the activity coefficient (332.85 K) was 15.5 ± 1.1 and the activity coefficient (354.65 K) was 12.4 ± 0.85.

Compound `CCCCCCCCC` [nonane] + CCCCn1cc[n+](C)c1.O=S(=O)([N-]S(=O)(=O)C(F)(F)C(F)(F)F)C(F)(F)C(F)(F)F has an activity coefficient (322.55 K) of 31.5 ± 2.2, an activity coefficient (342.75 K) of 26 ± 1.8 and an activity coefficient (362.65 K) of 21.8 ± 1.5.

Work on `CCCCCCCC` [octane] + CCCCCCCCCCn1cc[n+](CCCCCCCCCC)c1C.O=S(=O)([N-]S(=O)(=O)C(F)(F)F)C(F)(F)F yielded an activity coefficient (323.1 K) of 2.54 ± 0.17, an activity coefficient (333.15 K) of 2.48 ± 0.17 and an activity coefficient (343.15 K) of 2.45 ± 0.17.

Compound `CCCCCCCC` [octane] + CCCCCC[n+]1ccn(C)c1.FC(F)(F)C(F)(F)[P-](F)(F)(F)(C(F)(F)C(F)(F)F)C(F)(F)C(F)(F)F has an activity coefficient (312.8 K) of 12.2 ± 0.83, an activity coefficient (332.85 K) of 10.5 ± 0.72 and an activity coefficient (354.65 K) of 8.87 ± 0.6.

In the case of `CCCCCCCC` [octane] + CCCCn1cc[n+](C)c1.O=S(=O)([N-]S(=O)(=O)C(F)(F)C(F)(F)F)C(F)(F)C(F)(F)F, the activity coefficient (322.55 K) is reported as 20.4 ± 1.4, the activity coefficient (342.75 K) is reported as 17.3 ± 1.2 and the activity coefficient (362.65 K) is reported as 15.5 ± 1.1.
